From patent US4808409A, “Low cariogenic sweetening agents” (Board of Trustees, University of Illinois, priority 1984, dated 1989)

How the values were obtained:
male Swiss-Webster mice = assay: in vivo
Method: (§1) Compounds were suspended in a minimum volume of 1% sodium carboxymethylcellulose, and were administered by oral intubation at the doses indicated in Table II.
(§2) ^a Male SwissWebster mice (9 or 10 animals per dose).
(§3) ^d Mortality = number of mice dying within 14 days/number of starting
(§4) ^e Mortality = number of mice dying within 24 hours/number of startin

[1] = Body weight variation in mice following oral administration; conditions: for Day 14 total body weight vs control values: Day 14, in words
Method: as §1

human taste panel = assay: Human taste panel magnitude estimation of sweetness intensity and pleasantness; conditions: in words; synthetic racemic hernandulcin
Excerpt: Solutions were presented to the subjects in a randomized fashion and were sampled in duplicate. After tasting, each solution was expectorated, and the mouth was washed with distilled water.

[2] = test system: Salmonella typhimurium strain TM677; assay: Forward mutation assay; assay type: cell-based; conditions: synthetic hernandulcin
S. mutans [3] = assay: Cariogenicity: acid production by S. mutans from sweetener; assay type: cell-based
Method: In a first test, the ability of microbes to utilize this sweetener source as a nutrient and convert it to acidic by-products was determined.

S. mutans [4] = assay: Cariogenicity: inhibition of acid production from sucrose by S. mutans; assay type: cell-based; conditions: 428 micrograms per unit volume sucrose, 5,000 micrograms per unit volume sweetener
Method: In a second test, the ability of the test compound to inhibit acid production from sucrose by S. mutans was determined.

in vivo = conditions: mouse, in vivo, po
Method: as §1, §2, §3, §4

SMILES: CC(=O)CCC=C(C)C [6-Methyl-5-hepten-2-one, 6-methyl-5-hepten-2-one]
- Mortality at 1.0 g/kg (male Swiss-Webster mice; oral, 1.0 g/kg, 14 days, hernandulcin = synthetic): 0/9
- Mortality at 2.0 g/kg (14 days) (male Swiss-Webster mice; oral, 2.0 g/kg, 14 days, hernandulcin = synthetic): 0/9
- Acute toxicity for mice (male Swiss-Webster mice; oral, in words): essentially non-toxic
- Estimated LD50 (male Swiss-Webster mice; oral, male mice, hernandulcin = synthetic (two enantiomers)): > 2000 mg/kg
- Mortality at doses up to 2 g/kg (male Swiss-Webster mice; oral, up to 2 g/kg body weight, in words): no mortality
- Body weight, Day 1 (1.0 g/kg) ([1]; 1.0 g/kg oral, Day 1, hernandulcin = synthetic): 28.2 ± 0.8 g
- Body weight, Day 3 (1.0 g/kg) ([1]; 1.0 g/kg oral, Day 3, hernandulcin = synthetic): 26.3 ± 0.8 g
- Body weight, Day 7 (1.0 g/kg) ([1]; 1.0 g/kg oral, Day 7, hernandulcin = synthetic): 24.7 ± 0.9 g
- Body weight, Day 14 (1.0 g/kg) ([1]; 1.0 g/kg oral, Day 14, hernandulcin = synthetic): 28.0 ± 0.8 g
- Body weight, pre-drug (1.0 g/kg group) ([1]; 1.0 g/kg oral, pre-drug, hernandulcin = synthetic): 27.7 ± 0.8 g
- Body weight, Day 1 (2.0 g/kg) ([1]; 2.0 g/kg oral, Day 1, hernandulcin = synthetic): 28.6 ± 0.8 g
- Body weight, Day 3 (2.0 g/kg) ([1]; 2.0 g/kg oral, Day 3, hernandulcin = synthetic): 26.8 ± 0.9 g
- Body weight, Day 7 (2.0 g/kg) ([1]; 2.0 g/kg oral, Day 7, hernandulcin = synthetic): 25.0 ± 0.9 g
- Body weight, Day 14 (2.0 g/kg) ([1]; 2.0 g/kg oral, Day 14, hernandulcin = synthetic): 24.5 ± 0.8 g
- Body weight, pre-drug (2.0 g/kg group) ([1]; 2.0 g/kg oral, pre-drug, hernandulcin = synthetic): 28.8 ± 0.8 g
- Day 14 total body weight vs control values [1]: Significant difference from controls
- Day 14 total body weight vs control values ([1]; listed as 6-methyl-5-hepten-2-one): significantly different from control values

SMILES: CC(C)=CCC[C@@](C)(O)[C@H]1CCC(C)=CC1=O (relative stereo) [synthetic hernandulcin, 6-(1',5'-dimethyl-1'-hydroxyhex-4'-en-1'-yl)-3-methyl-2-cyclohexen-1-one]
- Taste (human taste panel): sweet
- Acute toxicity for mice (male Swiss-Webster mice; oral, in words): non-toxic
- Mutagenic activity without metabolic activation ([2]; in absence of activating system): No significant mutagenic activity
- Mutagenic activity with metabolic activation ([2]; in presence of activating system from livers of Aroclor 1254-pretreated rats): No significant mutagenic activity
- Rate of acid production at 5,000 micrograms per unit volume (S. mutans [3]; 5,000 micrograms per unit volume sweetener): 2.6×10^-5 mEq acid/min.
- Rate of acid production compared to sucrose (S. mutans [3]; in words, 5,000 micrograms per unit volume): relatively low rate of acid production
- Inhibition of acid production from sucrose (S. mutans [4]): failed to reduce the rate of acid production

SMILES: CC1=CC(=O)CCC1 [3-Methyl-2-cyclohexen-1-one, 3-methyl-2-cyclohexen-1-one]
- LD50 at 24 h (in vivo): < 2000 mg/kg
- Estimated LD50 (male Swiss-Webster mice; mouse, in vivo, po): 1600 ± 130 mg/kg
- Mortality at 1.1 g/kg (male Swiss-Webster mice; oral, 1.1 g/kg): 0/10
- Mortality at 1.3 g/kg (male Swiss-Webster mice; oral, 1.3 g/kg): 2/10
- Mortality at 1.4 g/kg (male Swiss-Webster mice; oral, 1.4 g/kg): 4/10
- Mortality at 1.6 g/kg (male Swiss-Webster mice; oral, 1.6 g/kg): 5/10
- Mortality at 2.0 g/kg (24 hours) (male Swiss-Webster mice; oral, 2.0 g/kg, 24 hours): 8/10
- Mortality at 2.4 g/kg (male Swiss-Webster mice; oral, 2.4 g/kg): 10/10
- Acute toxicity for mice (male Swiss-Webster mice; oral, in words): essentially non-toxic
